Experimental data taken from US6872738B1, “Product comprising at least a no synthase inhibiting substance associated with at least a phospholipase a2 inhibiting substance” (Societe de Conseils de Recherches et D'Applications …, priority 1999, dated 2005).
“And” between values parts separate entries of the source, which are not always exact repeats. Equal values may be shown once.

What was measured:
Assay in all cases: carrageenan-induced rat's paw edema
Assay type in all cases: in vivo, Male Sprague Dawley rats
[1] = tested on: carrageenan-induced rat's paw edema; conditions: for % inflammation: 30 minutes before 1% carrageenan, paw volume 3 hours after injection, 8 rats; for protection of the animal from the edema caused by carrageenan (in words): ip, doses of the groups of the respective example
Experimental: (§1) The activity of the compounds of the invention was evaluated in vivo on a model of carrageenan-induced rat's paw edema.
(§2) Male Sprague Dawley rats (Charles River) weighing 170 to 180 g on the day of the experiment are kept indoors for 5 to 8 days under animal husbandry conditions and are starved for 18 hours on a mesh floor before and during the experiment. The groups are constituted by 8 animals. The products are administered by intraperitoneal route (ip, 2 ml/kg), 30 minutes before the 1% Carrageenan is injected into the sole of the rats' rear right paw. The volume of the paw corresponding to the edema is measured using a water plethysmometer (Ugo Basile, APELEX) before the injection of carrageenan (t0) and 3 hours after the injection. The volume of the paw allows determination of the % of inflammation ((volume of the paw at time t after carrageenan−volume of the same paw at time to before injection of the products/volume of the paw at time t0)×100). […] This effectiveness is determined statistically by a Student test.

[2] = tested on: carrageenan-induced rat's paw edema; parameters: key: IS: Insignificant result; *: significant result; conditions: Example 4; 30 mg/kg ip
Experimental: as §1, §2

[3] = tested on: carrageenan-induced rat's paw edema; parameters: key: IS: insignificant result; ***: highly significant result
Experimental: as §1, §2

Compound | % inflammation ([1]; 30 mg/kg ip) | protection of the animal from the edema caused by carrageenan (in words) [1] | significance of % inflammation (Student test) [2] | further results
CN(Cc1nc(-c2cc(C(C)(C)C)c(O)c(C(C)(C)C)c2)cs1)c1ccc(NC(=N)c2cccs2)cc1.Cl [4-[3,5-bis(1,1-dimethylethyl)-4-hydroxyphenyl]-N-{4-[(imino(2-thienyl)methyl)amino]phenyl}-N-methyl-2-thiazolemethanamine hydrochloride] | 52.8 ± 4.0% | inactive | IS | 
O=[N+]([O-])c1cccc2cn[nH]c12 [7-nitroindazole] |  | inactive |  | significance of % inflammation (Student test) ([3]; Example 1, 25 mg/kg ip): IS; % inflammation ([1]; 25 mg/kg ip): 72.5 ± 16.1%
N=C(N)NN [aminoguanidine] |  | inactive |  | significance of % inflammation (Student test) ([3]; Example 2, 400 mg/kg ip): IS; significance of % inflammation (Student test) ([3]; Example 3, 400 mg/kg ip): IS; % inflammation ([1]; 400 mg/kg ip): 53.1 ± 3.4% and 60.7 ± 7.5%
COc1cccc2c1cc([N+](=O)[O-])c1c(C(=O)O)cc3c(c12)OCO3 [aristolochic acid] | 68 ± 5.1% | inactive |  | significance of % inflammation (Student test) ([3]; Example 3, 30 mg/kg ip): IS
CCN(CC)CCCC(C)Nc1c2ccc(Cl)cc2nc2ccc(OC)cc12 (stereo not drawn) [mepacrine] | 64.5 ± 3.7% and 53.9 ± 3.2% and 51.9 ± 2.7% | inactive | IS | significance of % inflammation (Student test) ([3]; Example 1, 30 mg/kg ip): IS; significance of % inflammation (Student test) ([3]; Example 2, 30 mg/kg ip): IS
